According to ChEMBL document CHEMBL1148758, “Guanidine and 2-aminoimidazoline aromatic derivatives as alpha(2)-adrenoceptor antagonists, 1: toward new antidepressants with heteroatomic linkers” (J Med Chem, 2007):

Assays:
Type in all cases: functional
Rattus norvegicus [1] = assay: Increase in noradrenergic extracellular noradrenaline level in locally administered Sprague-Dawley rat by microdialysis assay
[2] = biological target: T1, Adrenergic receptor alpha-2 (Homo sapiens, UniProt P08913+P18825+P18089); assay: Agonist activity at human brain adrenergic alpha2 receptor by [35S]GTPgammaS binding assay
T1 sequence (P08913 whole entry): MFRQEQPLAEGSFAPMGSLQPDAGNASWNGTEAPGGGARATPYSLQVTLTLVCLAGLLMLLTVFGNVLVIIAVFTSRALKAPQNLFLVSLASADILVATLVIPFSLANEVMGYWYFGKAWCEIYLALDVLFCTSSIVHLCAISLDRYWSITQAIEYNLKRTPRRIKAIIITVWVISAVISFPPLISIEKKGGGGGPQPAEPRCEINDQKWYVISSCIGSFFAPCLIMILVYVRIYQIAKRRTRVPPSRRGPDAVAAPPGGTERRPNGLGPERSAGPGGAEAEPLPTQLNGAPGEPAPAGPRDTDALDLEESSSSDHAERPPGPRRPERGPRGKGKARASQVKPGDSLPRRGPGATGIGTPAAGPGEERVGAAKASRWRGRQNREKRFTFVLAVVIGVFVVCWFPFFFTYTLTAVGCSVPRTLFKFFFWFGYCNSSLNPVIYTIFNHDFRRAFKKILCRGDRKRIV
T1 sequence (P18825 whole entry): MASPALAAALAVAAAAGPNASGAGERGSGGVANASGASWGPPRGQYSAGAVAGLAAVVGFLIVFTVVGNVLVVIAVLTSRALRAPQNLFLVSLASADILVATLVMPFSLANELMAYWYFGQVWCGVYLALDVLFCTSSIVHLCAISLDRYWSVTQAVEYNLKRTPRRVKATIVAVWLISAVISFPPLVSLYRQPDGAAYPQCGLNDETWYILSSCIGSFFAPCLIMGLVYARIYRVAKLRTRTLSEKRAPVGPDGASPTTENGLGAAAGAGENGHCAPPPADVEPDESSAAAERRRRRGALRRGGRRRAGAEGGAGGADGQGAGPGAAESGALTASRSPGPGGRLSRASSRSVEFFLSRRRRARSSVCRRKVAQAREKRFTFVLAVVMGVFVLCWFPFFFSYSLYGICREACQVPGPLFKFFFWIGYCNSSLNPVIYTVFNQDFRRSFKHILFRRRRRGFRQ
T1 sequence (P18089 whole entry): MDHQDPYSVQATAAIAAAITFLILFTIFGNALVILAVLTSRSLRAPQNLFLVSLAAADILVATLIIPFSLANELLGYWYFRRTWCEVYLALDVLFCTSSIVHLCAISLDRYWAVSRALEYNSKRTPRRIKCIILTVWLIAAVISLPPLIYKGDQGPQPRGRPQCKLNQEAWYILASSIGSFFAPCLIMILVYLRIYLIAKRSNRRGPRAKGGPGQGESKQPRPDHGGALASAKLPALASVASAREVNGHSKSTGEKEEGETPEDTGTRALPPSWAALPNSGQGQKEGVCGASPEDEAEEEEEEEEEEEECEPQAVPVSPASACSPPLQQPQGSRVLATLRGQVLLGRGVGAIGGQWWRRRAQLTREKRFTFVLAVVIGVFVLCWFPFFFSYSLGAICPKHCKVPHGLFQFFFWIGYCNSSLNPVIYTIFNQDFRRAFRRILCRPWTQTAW

Rattus norvegicus [3] = assay: Increase in noradrenergic extracellular noradrenaline level in Sprague-Dawley rat at 8 mg/kg, ip by microdialysis assay; conditions: route intraperitoneal
[4] = biological target: T1, Adrenergic receptor alpha-2; assay: Antagonist activity at human brain adrenergic alpha-2 receptor assessed as UK-14304-stimulated [35S]GTPgammaS binding at 10 uM

| Structure (SMILES) | Activity (Rattus norvegicus [1]) [%] | EC50 [2] [µM] | Activity (Rattus norvegicus [3]) [%] | EC50 [4] [µM] |
| --- | --- | --- | --- | --- |
| COC1(C2=NCCN2)COc2ccccc2O1 (stereo not drawn) | 287 |  |  |  |
| COc1ccc(NC2=NCCN2)cc1 |  | 30.4 |  |  |
| c1cc2c(cc1NC1=NCCN1)OCO2 | 240 |  | 328 | 141 |
| CN(C)c1ccc(NC2=NCCN2)cc1 | 316 |  | 192 |  |
| c1ccc2c(c1)OCC(C1=NCCN1)O2 (stereo not drawn) [IDAZOXAN] | 235 |  |  |  |
